Reference: ChEMBL document CHEMBL1137122, “Solution phase parallel synthesis and evaluation of MAPK inhibitory activities of close structural analogues of a Ras pathway modulator” (Bioorg Med Chem Lett, 2004)

How the values were obtained:
[1] = target: T1, Serine/threonine-protein kinase RAF and Dual specificity mitogen-activated protein kinase kinase 1 (Raf/MEK) (Homo sapiens, UniProt P04049+Q02750); test: Inhibitory activity in EGF-stimulated Elk1-luciferase reporter assay in HeLa cells at 20 uM; assay type: functional, cell-based
[2] = target: T1, Serine/threonine-protein kinase RAF and Dual specificity mitogen-activated protein kinase kinase 1 (Raf/MEK); test: Inhibition of EGF-stimulated Elk1-luciferase reporter assay in HeLa cells; assay type: functional, cell-based
[3] = tested on: HCT-116; test: Ability of compound to inhibit anchorage independent colony formation (soft agar growth assay) in HCT116 cells; assay type: functional; details: Homo sapiens
[4] = tested on: HCT-116; test: Antiproliferative activity was evaluated using HCT116 cells in WST-1 assay; assay type: functional; details: Homo sapiens
[5] = target: T1, Serine/threonine-protein kinase RAF and Dual specificity mitogen-activated protein kinase kinase 1 (Raf/MEK); test: Inhibitory activity in EGF-stimulated Elk1-luciferase reporter assay in HeLa cells at 60 uM; assay type: functional, cell-based
[6] = tested on: HCT-116; test: Antiproliferative activity was evaluated using HCT116 cells in WST-1 assay at 60 uM; assay type: functional; details: Homo sapiens
[7] = target: T1, Serine/threonine-protein kinase RAF and Dual specificity mitogen-activated protein kinase kinase 1 (Raf/MEK); test: Inhibitory activity in EGF-stimulated Elk1-luciferase reporter assay in HeLa cells at 15 uM; assay type: functional, cell-based
[8] = target: T1, Serine/threonine-protein kinase RAF and Dual specificity mitogen-activated protein kinase kinase 1 (Raf/MEK); test: Inhibitory activity in EGF-stimulated Elk1-luciferase reporter assay in HeLa cells at 30 uM; assay type: functional, cell-based
[9] = tested on: HCT-116; test: cells; details: Homo sapiens
Description: Antiproliferative activity was evaluated using HCT116 cells in WST-1 assay at 15 uM

T1 sequence (P04049 whole entry, looked up): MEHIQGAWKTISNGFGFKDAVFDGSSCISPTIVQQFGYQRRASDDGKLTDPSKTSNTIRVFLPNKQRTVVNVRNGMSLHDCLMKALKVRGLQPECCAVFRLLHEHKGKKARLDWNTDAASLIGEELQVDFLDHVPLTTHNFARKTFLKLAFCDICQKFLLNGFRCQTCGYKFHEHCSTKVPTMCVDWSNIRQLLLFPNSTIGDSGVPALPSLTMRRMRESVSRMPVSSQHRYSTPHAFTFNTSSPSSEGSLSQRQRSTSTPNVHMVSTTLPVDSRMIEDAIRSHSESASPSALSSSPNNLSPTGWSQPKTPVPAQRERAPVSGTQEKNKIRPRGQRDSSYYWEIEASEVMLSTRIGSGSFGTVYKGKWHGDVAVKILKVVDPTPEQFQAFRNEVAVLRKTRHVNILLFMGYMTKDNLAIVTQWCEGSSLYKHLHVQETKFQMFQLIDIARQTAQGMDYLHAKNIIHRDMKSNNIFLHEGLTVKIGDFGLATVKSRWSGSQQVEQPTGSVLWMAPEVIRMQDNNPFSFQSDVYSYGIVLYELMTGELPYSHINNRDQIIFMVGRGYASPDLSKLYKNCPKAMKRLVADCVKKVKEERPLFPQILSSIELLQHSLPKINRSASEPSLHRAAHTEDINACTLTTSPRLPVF
T1 sequence (Q02750 whole entry, looked up): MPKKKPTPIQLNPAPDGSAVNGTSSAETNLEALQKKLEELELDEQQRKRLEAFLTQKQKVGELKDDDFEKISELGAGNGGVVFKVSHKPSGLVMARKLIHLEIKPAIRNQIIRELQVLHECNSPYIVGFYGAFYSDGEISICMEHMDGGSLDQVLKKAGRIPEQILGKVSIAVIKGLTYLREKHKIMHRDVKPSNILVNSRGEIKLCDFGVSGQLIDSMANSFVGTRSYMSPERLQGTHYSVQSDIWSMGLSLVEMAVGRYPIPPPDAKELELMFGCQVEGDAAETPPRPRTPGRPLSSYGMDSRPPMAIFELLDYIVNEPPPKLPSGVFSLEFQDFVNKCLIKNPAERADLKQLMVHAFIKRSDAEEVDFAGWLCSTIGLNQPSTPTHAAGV

| IC50 [2] | GI50 [3] | GI50 [4] | Structure (SMILES) | further results |
| --- | --- | --- | --- | --- |
| 25.3 µM | – | – | COc1cc(CN(Cc2ccccc2Cl)C(=O)Cc2ccccn2)ccc1OCc1ccccc1 | – |
| 16.2 µM | 18.8 µM | 29 µM | COc1cc(C(=O)N(CCc2ccccn2)Cc2ccccc2Cl)ccc1OCc1ccccc1 | – |
| 20.6 µM | 22.1 µM | 24.7 µM | COc1cc(CN(CCc2ccccn2)C(=O)c2ccccc2Cl)ccc1OCc1ccccc1 | – |

More lines, now with the values behind:

| Structure (SMILES) | IC50 [2] | GI50 [3] | GI50 [4] | further results |
| --- | --- | --- | --- | --- |
| COc1cc(CN(CCc2ccccn2)C(=O)C(N)Cc2ccccc2)ccc1OCc1ccccc1 (centres undefined) | – | – | – | inhibition [1]: 14% |
| COc1cc(CN(CCc2ccccn2)C(=O)C2CC2c2ccccc2)ccc1OCc1ccccc1 (trans isomer) | 10.5 µM | 25.9 µM | 23.9 µM | – |
| COc1ccc(CN(CCc2ccccn2)C(=O)c2ccccc2Cl)cc1OC | – | – | – | inhibition [1]: 24% |
| O=C(c1ccccc1Cl)N(CCc1ccccn1)CC1CCN(CCc2ccccc2)CC1 | – | – | – | inhibition [5]: 7%; inhibition at 60 µM [6]: 32% |
| O=C(CCCCc1ccccc1)N(CCc1ccccn1)Cc1ccc(OCc2ccccc2)c(OCCO)c1 | 14.2 µM | 14.4 µM | 18.6 µM | – |
| COc1cc(CN(CCC2CCCCN2)C(=O)CCCc2ccccc2)ccc1OCc1ccccc1 (centres undefined) | – | 3.5 µM | 5.4 µM | inhibition [7]: 0%; inhibition [8]: 100% |
| O=C(CCCCc1ccccc1)N(CCc1ccccn1)Cc1ccc(OCc2ccccc2)c(O)c1 | 19.4 µM | – | 31.6 µM | – |
| COc1cc(CN(CCc2ccccn2)C(=O)CNCc2ccccc2)ccc1OCc1ccccc1 | – | – | – | inhibition [1]: 6% |
| COc1cc(CN(CCc2ccccn2)C(=O)COCc2ccccc2)ccc1OCc1ccccc1 | – | – | – | inhibition [1]: 43% |
| COc1cc(CN(CCc2ccccn2)C(=O)CCC(C)c2ccccc2)ccc1OCc1ccccc1 (centres undefined) | 11.2 µM | 23.5 µM | 13.2 µM | – |
| COc1ccc(CN(CCc2ccccn2)C(=O)c2ccccc2Cl)cc1OCc1ccccc1 | – | – | – | inhibition [1]: 32% |
| N#CC(=C(/N)Sc1ccccc1N)/C(C#N)=C(\N)Sc1ccccc1N | – | 19.4 µM | – | inhibition at 15 µM [9]: 35% |
| COc1cc(CN(CCc2cccc(O)n2)C(=O)CCCCc2ccccc2)ccc1OCc1ccccc1 | 12.3 µM | 32.3 µM | 22.6 µM | – |
| COc1cc(CN(CCc2ccccn2)C(=O)CCCCc2ccccc2)ccc1OCc1ccccc1 | 9 µM | 20.6 µM | 16.2 µM | – |
| CNC(=O)c1cc(Oc2ccc(NC(=O)Nc3ccc(Cl)c(C(F)(F)F)c3)cc2)ccn1 [SORAFENIB] | – | 6.6 µM | 5.4 µM | – |
